The source of these data is patent US6596500B1, “Binding of retinoids to M6P/IGF-II receptor” (The General Hospital Corporation, priority 1998, dated 2003).

Assay [1] relates to neonatal rat cardiac myocytes. The assay is described as follows: Cellular acid phosphatase activity in cultured cardiac myocytes. In kind it is cell-based. Particulars: RA 2 μM; various times. As for the experimental part: FIG. 6. is a graph summarizing data on the effect of RA on cellular acid phosphatase activity. Cultured neonatal rat cardiac myocytes were treated with 2 μM RA at 37° C. for various time, washed and harvested. Cellular proteins were then solubilized by sonication and acid phosphatase activity was assayed using a Diagnostics Acid Phosphatase kit (Sigma). Dotted line represents control cells. Solid line represents RA-treated cells. Bars represent standard error or the mean (n=4).
The primary functions of the Man-6-P/IGF-II receptor are to mediate endocytosis of extracellular M6P-containing proteins (e.g. lysosomal enzymes) and IGF-II and to sort newly synthesized lysosomal enzymes. Therefore, an important question raised by the direct interaction of RA with M6P/IGF2R is whether RA influences these functions of the receptor. To answer this question, we examined the effect of RA on endocytosis of exogenous β-glucuronidase and ^125I-IGF-II and intracellular activity of acid phosphatase in cultured neonatal rat cardiac myocytes, which were known to express high levels of the M6P/IGF-II receptor (Nissley et al., 1993, Mol. Reprod. Dev. 35:408-413). […] This indicated an increased sorting of lysosomal enzymes) (FIGS. 4-6). […] These effects of RA were not altered in the presence of a protein synthesis inhibitor (0.5 mM cycloheximide) and were not observed in the receptor-negative P388D1 cells. […]

Assay [2] concerns HL-60R cells. The assay is described as follows: Growth and apoptosis of HL-60R cells overexpressing M6P/IGF2R. Particulars: 1 μM RA; HL-60R cells transfected with M6P/IGF2R cDNA. It counts as cell-based, human. Here is the method: FIG. 9 is a graph showing the effect of RA treatment on growth (number of viable cells) of HL-60R cells overexpressing M6P/IGF2R protein and HL-60R controls. Open circles, vector control cells without RA treatment; closed circles, vector control cells with 1 μM RA treatment; open squares, overexpressing cells without RA treatment; closed squares overexpressing cells with 1 μM RA treatment.
We examined the M6P/IGF2R-mediated effects of RA in the absence of nuclear RA receptors, by using human cell line HL-60R, which lacks functional nuclear RA receptors. This cell line expresses low levels of M6P/IGF2R protein. We transfected HL-60R cells with a plasmid encoding human M6P/IGF2R, so they overexpressed M6P/IGF2R. Then we assessed their response to RA. […] Apoptosis was assayed using FITC-labeled annexin V staining and flow cytometry.

Assay [3] concerns the target M6P/IGF2R (Rattus norvegicus, UniProt G3V824). The assay is described as follows: β-glucuronidase binding to saponin-permeabilized cardiac myocytes. To be noted: RA 1 μM; saponin-permeabilized neonatal rat cardiac myocytes. Also on record: endogenous in cells; host or cells: primary neonatal rat cardiac fibroblasts. It counts as cell-based. As for the experimental part:
FIG. 3 is a histogram summarizing data on the effect of RA (1 μM) on β-glucuronidase binding to permeabilized neonatal rat cardiac myocytes (n=3).
To determine how these ligands interact in binding to the same receptor, we examined the effects of M6P and IGF-II on the [^3H]RA-affinity photolabeling of the M6P/IGF-II receptor. […] The [^3H]RA labeling of M6P/IGF-II receptor was 2-fold greater in the presence of 5 mM M6P than in the absence of M6P, as measured by NIH Image, n=3. Similar results were obtained by measurement of the binding of [^3H]RA to the partially purified receptors (FIG. 2). The increased binding of RA to the receptor in the presence of M6P appeared to be the result of increased binding affinity. […]
β-glucuronidase Binding and Endocytosis For binding assays, cells were permeabilized with saponin, incubated with β-glucuronidase (20,000 units/ml) with or without 1 μM RA for 3 h on ice, washed, solubilized and assayed for β-glucuronidase essentially as described by Miniti et al., 1992, J. Biol. Chem. 267:9000-9004. Specific enzyme binding was calculated by subtracting nonspecific binding (in the presence of 10 mM M6P) from total binding.

M6P/IGF2R, sequence (G3V824 36-2481): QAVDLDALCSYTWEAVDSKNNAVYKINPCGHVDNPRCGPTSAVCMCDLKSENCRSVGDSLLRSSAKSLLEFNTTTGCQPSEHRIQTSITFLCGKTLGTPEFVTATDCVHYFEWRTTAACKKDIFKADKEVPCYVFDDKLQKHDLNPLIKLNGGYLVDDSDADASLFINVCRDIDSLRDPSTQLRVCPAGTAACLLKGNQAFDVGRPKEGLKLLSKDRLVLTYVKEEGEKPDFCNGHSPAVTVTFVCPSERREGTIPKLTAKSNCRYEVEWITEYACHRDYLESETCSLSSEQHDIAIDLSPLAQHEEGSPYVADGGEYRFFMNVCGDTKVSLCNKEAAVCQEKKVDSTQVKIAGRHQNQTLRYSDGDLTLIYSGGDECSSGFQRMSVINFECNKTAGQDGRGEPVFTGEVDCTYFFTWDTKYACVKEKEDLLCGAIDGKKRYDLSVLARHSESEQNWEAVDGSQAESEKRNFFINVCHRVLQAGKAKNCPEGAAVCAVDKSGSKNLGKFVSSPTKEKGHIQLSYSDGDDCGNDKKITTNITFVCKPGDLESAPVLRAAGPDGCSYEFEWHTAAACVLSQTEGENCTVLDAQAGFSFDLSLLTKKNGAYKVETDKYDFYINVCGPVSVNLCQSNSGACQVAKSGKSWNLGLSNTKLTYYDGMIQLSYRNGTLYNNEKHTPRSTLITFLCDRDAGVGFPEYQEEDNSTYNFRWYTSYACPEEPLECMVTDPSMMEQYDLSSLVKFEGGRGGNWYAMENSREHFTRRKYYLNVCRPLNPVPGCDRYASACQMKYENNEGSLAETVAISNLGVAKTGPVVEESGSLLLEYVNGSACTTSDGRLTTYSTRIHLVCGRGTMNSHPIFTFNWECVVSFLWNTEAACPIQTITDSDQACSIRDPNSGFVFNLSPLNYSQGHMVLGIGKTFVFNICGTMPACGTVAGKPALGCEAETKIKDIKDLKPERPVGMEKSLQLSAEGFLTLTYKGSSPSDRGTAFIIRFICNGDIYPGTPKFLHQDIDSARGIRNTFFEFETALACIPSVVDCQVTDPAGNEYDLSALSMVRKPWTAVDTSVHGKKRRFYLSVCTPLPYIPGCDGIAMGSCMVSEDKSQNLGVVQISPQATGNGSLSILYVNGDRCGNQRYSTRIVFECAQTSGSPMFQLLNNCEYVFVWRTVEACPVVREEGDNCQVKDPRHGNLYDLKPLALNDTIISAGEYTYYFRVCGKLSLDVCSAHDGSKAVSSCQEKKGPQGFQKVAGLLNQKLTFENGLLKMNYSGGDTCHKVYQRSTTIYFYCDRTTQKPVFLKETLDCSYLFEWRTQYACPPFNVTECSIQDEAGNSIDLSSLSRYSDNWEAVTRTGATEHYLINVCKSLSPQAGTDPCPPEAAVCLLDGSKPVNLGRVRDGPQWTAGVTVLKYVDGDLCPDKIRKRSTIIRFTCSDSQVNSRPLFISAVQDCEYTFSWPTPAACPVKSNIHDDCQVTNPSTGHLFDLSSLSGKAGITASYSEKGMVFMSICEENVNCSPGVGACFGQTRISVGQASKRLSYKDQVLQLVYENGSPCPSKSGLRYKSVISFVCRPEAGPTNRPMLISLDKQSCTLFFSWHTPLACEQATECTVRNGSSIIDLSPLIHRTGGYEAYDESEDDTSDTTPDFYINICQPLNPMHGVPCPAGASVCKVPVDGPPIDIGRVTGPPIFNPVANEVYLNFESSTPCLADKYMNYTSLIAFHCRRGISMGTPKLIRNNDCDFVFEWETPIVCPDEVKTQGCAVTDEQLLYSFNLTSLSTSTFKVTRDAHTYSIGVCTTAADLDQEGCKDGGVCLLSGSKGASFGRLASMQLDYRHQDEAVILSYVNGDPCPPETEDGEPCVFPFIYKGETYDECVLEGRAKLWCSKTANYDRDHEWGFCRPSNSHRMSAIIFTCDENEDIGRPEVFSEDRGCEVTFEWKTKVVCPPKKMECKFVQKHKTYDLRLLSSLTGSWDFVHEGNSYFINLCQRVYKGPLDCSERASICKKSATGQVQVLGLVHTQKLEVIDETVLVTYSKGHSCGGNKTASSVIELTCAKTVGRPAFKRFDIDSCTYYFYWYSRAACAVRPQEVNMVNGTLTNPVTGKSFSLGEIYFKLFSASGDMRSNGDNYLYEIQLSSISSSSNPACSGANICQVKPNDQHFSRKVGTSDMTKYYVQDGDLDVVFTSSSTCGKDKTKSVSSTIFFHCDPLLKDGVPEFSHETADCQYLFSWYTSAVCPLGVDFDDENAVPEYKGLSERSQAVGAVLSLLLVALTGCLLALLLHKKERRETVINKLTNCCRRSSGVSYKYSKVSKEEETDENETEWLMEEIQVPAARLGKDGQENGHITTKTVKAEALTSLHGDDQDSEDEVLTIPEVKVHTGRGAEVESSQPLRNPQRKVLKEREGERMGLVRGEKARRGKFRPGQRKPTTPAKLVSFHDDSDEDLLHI

For the compound `CC1=C(/C=C/C(C)=C/C=C/C(C)=C/C(=O)O)C(C)(C)CCC1` [RA, all-trans-retinoic acid], in assay [1], the “Cellular acid phosphatase activity” value is reported as “induced a transient cellular accumulation of acid phosphatase”. In assay [2], the “Apoptosis (FITC-annexin V staining, flow cytometry)” value is on record as “significant increase in apoptosis” and the Growth rate entry is reported as “remarkable reduction in growth rate”. The “M6P-inhibitable binding of β-glucuronidase to cells, presence vs absence of RA” value in assay [3] was 2-3 times.
